Data reported in ChEMBL document CHEMBL5620345, “Metal binding pharmacophore click-derived discovery of new broad-spectrum metallo-β-lactamase inhibitors” (Eur J Med Chem, 2023).

Key:
[1] = Inhibition of recombinant his tagged IMP1 (unknown origin) expressed in Escherichia coli (DE3) cells using FC5 as substrate by microplate reader assay
[2] = Inhibition of recombinant NDM1 (unknown origin) expressed in Escherichia coli (DE3) cells using FC5 as substrate by microplate reader assay
[3] = Inhibition of recombinant VIM-1 (unknown origin) expressed in Escherichia coli (DE3) cells using FC5 as substrate by microplate reader assay
[4] = Inhibition of recombinant his tagged VIM-2 (unknown origin) expressed in Escherichia coli (DE3) cells using FC5 as substrate by microplate reader assay
[5] = Inhibition of recombinant VIM-5 (unknown origin) expressed in Escherichia coli (DE3) cells using FC5 as substrate by microplate reader assay
[6] = system: Escherichia coli; assay: Antibacterial activity against Escherichia coli BAA2452 expressing blaNDM-1 clinical isolates assessed as meropenem MIC incubated for 16 to 18 hrs by broth microdilution method; type: functional; settings: time 16-18 hrs; further: test concentration or dose not given here
[7] = system: Enterobacterales; assay: Antibacterial activity against Carbapenem-Resistant Enterobacterales 19 expressing blaNDM-1 clinical isolates assessed as meropenem MIC incubated for 16 to 18 hrs by broth microdilution method; type: functional; settings: time 16-18 hrs; further: test concentration or dose not given here
[8] = system: Klebsiella pneumoniae; assay: Antibacterial activity against Klebsiella pneumoniae BAA2470 expressing blaNDM-1 clinical isolates assessed as meropenem MIC incubated for 16 to 18 hrs by broth microdilution method; type: functional; settings: time 16-18 hrs; further: test concentration or dose not given here
[9] = system: Escherichia coli; assay: Antibacterial activity against Escherichia coli C1580 expressing blaIMP-1 clinical isolates assessed as meropenem MIC incubated for 16 to 18 hrs by broth microdilution method; type: functional; settings: time 16-18 hrs; further: test concentration or dose not given here
[10] = system: Escherichia coli; assay: Antibacterial activity against Escherichia coli BAA2452 expressing blaNDM-1 clinical isolates assessed as fold potentiation incubated for 16 to 18 hrs by broth microdilution method; type: functional; settings: time 16-18 hrs; further: test concentration or dose not given here
[11] = system: Enterobacterales; assay: Antibacterial activity against Carbapenem-Resistant Enterobacterales 19 expressing blaNDM-1 clinical isolates assessed as fold potentiation incubated for 16 to 18 hrs by broth microdilution method; type: functional; settings: time 16-18 hrs; further: test concentration or dose not given here
[12] = system: Klebsiella pneumoniae; assay: Antibacterial activity against Klebsiella pneumoniae BAA2470 expressing blaNDM-1 clinical isolates assessed as fold potentiation incubated for 16 to 18 hrs by broth microdilution method; type: functional; settings: time 16-18 hrs; further: test concentration or dose not given here
[13] = system: Escherichia coli; assay: Antibacterial activity against Escherichia coli C1580 expressing blaIMP-1 clinical isolates assessed as fold potentiation incubated for 16 to 18 hrs by broth microdilution method; type: functional; settings: time 16-18 hrs; further: test concentration or dose not given here
[14] = system: Escherichia coli; assay: Antibacterial activity against Escherichia coli C1541 expressing blaVIM-2 clinical isolates assessed as meropenem MIC incubated for 16 to 18 hrs by broth microdilution method; type: functional; settings: time 16-18 hrs; further: test concentration or dose not given here
[15] = system: Escherichia coli; assay: Antibacterial activity against Escherichia coli C1541 expressing blaVIM-2 clinical isolates assessed as fold potentiation incubated for 16 to 18 hrs by broth microdilution method; type: functional; settings: time 16-18 hrs; further: test concentration or dose not given here

SMILES	IC50 [1] [nM]	IC50 [2] [nM]	IC50 [3] [nM]	IC50 [4] [nM]	IC50 [5] [nM]	MIC [6] [µg/mL]	MIC [7] [µg/mL]	MIC [8] [µg/mL]	MIC [9] [µg/mL]	fold change (FC) [10]	fold change (FC) [11]	fold change (FC) [12]	fold change (FC) [13]	MIC [14] [µg/mL]	fold change (FC) [15]
Cc1ccc(-c2ccc(C(c3cccc(-n4cc(-c5cccc(N)c5)nn4)c3)P(=O)(O)O)cc2)cc1 (stereo unspecified)	430	590	660	0.66	2	16	8	64	2	8	8	>2	16	–	–
Nc1cccc(-c2cn(-c3cccc(CP(=O)(O)O)c3)nn2)c1	1960	7270	2210	92	19	32	16	128	2	4	4	>1	16	4	4
O=P(O)(O)Cc1ccc(-n2cc(-c3cccc(Cl)c3)nn2)cc1	> 100000	> 100000	8990	2440	2030	–	–	–	–	–	–	–	–	–	–
O=P(O)(O)Cc1cccc(-n2cc(-c3ccc(Br)cc3)nn2)c1	3280	11200	11400	76	50	32	16	128	2	4	4	>1	16	4	4
CCCCc1cn(-c2cccc(CP(=O)(O)O)c2)nn1	12300	> 100000	16500	2230	1730	–	–	–	–	–	–	–	–	–	–
COc1ccc(C(c2cccc(-n3cc(-c4cccc(N)c4)nn3)c2)P(=O)(O)O)cc1 (stereo unspecified)	3250	8090	1240	52	25	16	8	64	1	8	8	>2	32	2	8
O=P(O)(O)Cc1cccc(-n2cc(CNc3ccccc3)nn2)c1	780	2840	3770	840	640	–	–	–	–	–	–	–	–	–	–
Nc1ccccc1-c1cn(-c2cccc(CP(=O)(O)O)c2)nn1	6500	7710	5610	13	510	32	8	128	2	4	8	>1	16	1	16
Nc1cccc(-c2cn(-c3cccc(C(c4ccc(F)cc4)P(=O)(O)O)c3)nn2)c1 (stereo unspecified)	700	2000	440	6	1	16	8	64	2	8	8	>2	16	0.5	32
O=[N+]([O-])c1ccc(Cn2cc(-c3cccc(B(O)O)c3)nn2)cc1	> 100000	48000	> 100000	9760	81100	64	32	> 128	16	2	2	–	2	64	–
